{
  "source": "paper PMC5274652",
  "about": "“Antagonizing Retinoic Acid Receptors Increases Myeloid Cell Production by Cultured Human Hematopoietic Stem Cells” (Archivum Immunologiae et Therapiae Experimentalis, 2016)",
  "key": {"[1]": {"target": "T1, human RARα (Homo sapiens, UniProt P10276)", "T1 construct": "made in house", "T1 sequence (P10276 1-462)": "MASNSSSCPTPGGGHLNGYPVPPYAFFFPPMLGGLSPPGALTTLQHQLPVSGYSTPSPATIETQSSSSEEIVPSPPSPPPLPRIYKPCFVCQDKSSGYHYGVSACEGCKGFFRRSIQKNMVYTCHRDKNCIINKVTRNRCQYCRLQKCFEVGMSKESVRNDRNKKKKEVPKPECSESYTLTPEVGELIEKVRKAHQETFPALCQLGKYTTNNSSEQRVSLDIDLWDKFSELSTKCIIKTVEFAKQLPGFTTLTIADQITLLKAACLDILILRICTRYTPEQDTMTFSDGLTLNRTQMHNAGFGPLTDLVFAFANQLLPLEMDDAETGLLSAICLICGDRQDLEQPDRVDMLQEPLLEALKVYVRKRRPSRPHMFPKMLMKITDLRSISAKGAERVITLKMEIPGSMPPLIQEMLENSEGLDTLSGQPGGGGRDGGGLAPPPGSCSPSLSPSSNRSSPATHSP", "test": "Competition with [3H]-ATRA binding, nuclear extracts of Sf21 cells expressing RARα", "details": "nuclear extracts of baculovirus-infected Sf21 cells, read-out: Binding affinity ED50, RARα"}, "[2]": {"system": "CD34^+vehuHSC", "test": "Cell production and lifespan of CD34+ve huHSC-initiated cultures", "assay_type": "cell-based, human", "from_the_text": "(§1) The cells used were CD34^+ve cells purified from the blood of normal human adult donors and post-mobilization of stem cells to the blood. Cells obtained and purified in this manner are used routinely by the National Blood Service Stem Cell Laboratory in Birmingham for bone marrow transplantation. Ethics approval for the use of adult human blood-mobilized stem cells (CD34^+vehuHSC) was from the West Midlands Research Ethics Committee. Informed consent was obtained by the regional National Blood Service Stem Cell Laboratory in Birmingham. CD34^+ve cells were purified to 99 % CD34^+ve, 97 % CD133^+ve, >99 % lineage^−ve (n = 15) using an anti-CD34 monoclonal antibody, immunomagnetic beads, and a CliniMACS magnetic separator. Purified cells were plated at 5 × 10^5 cells/ml in microtiter wells in 200 μl of either RPMI-1640 medium (R and D Systems, Abingdon, UK) or HPGM^TM hematopoietic growth medium (Lonza, UK) containing either 10 % FBS or 10 % human serum, antibiotics (100 U/ml penicillin and 100 μg/ml streptomycin) and stem cell factor (SCF), interleukin (IL)-3, and granulocyte-colony stimulating factor (G-CSF) (all from R and D Systems Abingdon, UK) as stated in the results. Cultures were fed every 2–3 days (with fresh compound), split into microtiter wells, and then expanded into 2 ml Costar wells to maintain a cell density of between 2.5 and 10 × 10^5 cells/ml. Cells were grown at 37 °C in 5 % CO2. Viable cells were enumerated by phase contrast microscopy (400× magnification).\nThe expression of differentiation markers at the cell surface was determined by flow cytometry. Differentiation of NB-4 and KG1 cells was measured by staining using the monoclonal antibodies CD11b-FITC and CD14-PE and appropriately labeled isotype controls (all from ImmunoTools, Friesoythe, Germany). Differentiation of human CD34^+ve cells was measured by triple-color staining using various cocktails of phycoerythrin-, fluorescein isothyocyanate-, and PerCP-monoclonal antibodies (from Becton–Dickinson, San Jose, CA, USA). The markers used to identify cell populations were as follows: CD45^+ve leukocytes; CD34^+ve/CD133^+ve HSCs; CD33^+ve/CD13^+ve immature myeloid; CD117^+ve myeloblasts and promyelocytes; CD11b^+ve/CD15^+ve mature myeloid; CD11b^+ve/CD65^+ve neutrophils; CD11b^+ve/CD14^+ve monocytes; glycophorin^+ve A erythroid cells; CD61^+ve megakaryoblasts and platelets; CD2^+ve/CD5^+ve/CD7^+ve T cells and NK cells; CD56^+ve NK cells; CD19^+ve/CD20^+ve B cells; and CD10^+ve B lymphocyte progenitors; and present on mature neutrophils and DR^+ve progenitors and present on mature monocytes. The cells were stained with 1 µl of the fluorescently labeled antibody (or the appropriate control immunoglobulin) for 1 h on ice. Next, they were washed with ice-cold phosphate-buffered saline (PBS) and suspended in 0.5 ml PBS supplemented with 0.1 % bovine serum albumin (Sigma, St Louis, MO, USA) prior to analysis on FACS Calibur flow cytometer (Becton–Dickinson, San Jose, CA, USA). The acquisition parameters were set for an isotype control. Cells were analyzed using a FACSCalibur, and data analysis was performed using the CellQuest Pro software (Becton–Dickinson, San Jose, CA, USA)."}, "[3]": {"system": "lineage^−ve/CD133^+ve/CD34^+vehuHSC", "test": "Ex vivo expansion of lineage-ve/CD133+ve/CD34+ve huHSC", "assay_type": "cell-based, human", "from_the_text": "as §1, with “Viable cells were enumerated by phase contrast microscopy (400× magnification).” left out\nThe expression of differentiation markers at the cell surface was determined by flow cytometry. Differentiation of NB-4 and KG1 cells was measured by staining using the monoclonal antibodies CD11b-FITC and CD14-PE and appropriately labeled isotype controls (all from ImmunoTools, Friesoythe, Germany). Differentiation of human CD34^+ve cells was measured by triple-color staining using various cocktails of phycoerythrin-, fluorescein isothyocyanate-, and PerCP-monoclonal antibodies (from Becton–Dickinson, San Jose, CA, USA). […] Cells were analyzed using a FACSCalibur, and data analysis was performed using the CellQuest Pro software (Becton–Dickinson, San Jose, CA, USA)."}, "[4]": {"system": "CD34^+vehuHSCs", "test": "Week-five CAFC and LTC-IC assays of cultured CD34+ve huHSC", "assay_type": "cell-based, human", "details": "100 nM, cells cultured 2 weeks, two donors", "method": "Assays for week-five cobblestone area forming cells (CAFC), long-term culture-initiating cells (LTC-IC), and colony-forming units (CFU) were performed at the Stem Cell Laboratory at the National Blood Service Stem Cell Laboratory using standard procedures and methods, as described by other workers (de […] and Ploemacher [2001]; Denning-Kendall et al. [1996]; Nicol et al. [1996]). CFU assays were performed using Methocult^TM GF H8444 (StemCell Technologies) and in 35 mm petri dishes. The presence of CAFC was scored as the presence of 12 or more closely associated and small cells that were embedded in the MS5 cell feeder layer and blind by an experienced reader. The nature of CFUs, as to colony-forming unit-granulocyte/erythroid/megakaryocyte/monocyte (CFU-GEMM), colony-forming unit-granulocyte/macrophage (CFU-GM), burst-forming unit-erythroid (BFU-E), and colony-forming unit-erythroid (CFU-E), was scored blind at the service by a person who routinely reads colony assays and is accredited. The nature of colonies was confirmed by sampling colonies and staining cytocentrifuged preparations of cells."}, "[5]": {"system": "mice", "details": "cited from earlier work"}},
  "data": [
    {"smiles": "CCc1ccc(C2=CC(C)(C)Sc3ccc(C#Cc4ccc(C(=O)O)cc4)cc32)cc1", "note": "[AGN194310]", "values": [
      {"measurement": "IC50", "setting": "[1]", "value": 4.3, "unit": "nM"},
      {"measurement": "cells produced versus control cultures", "setting": "[2]; 10 nM, by day 20, 10 % FBS, SCF, IL-3", "value": "around fourfold more cells"},
      {"measurement": "time for which cultures were maintained", "setting": "[2]; 10 nM, 10 % FBS, SCF, IL-3, control cultures expire by day 30", "value": "≤ 55", "unit": "days"},
      {"measurement": "kinetic of cell production compared with 10 nM", "setting": "[2]; 100 nM, data not shown", "value": "almost identical kinetic"},
      {"measurement": "effect on rate of myeloid cell differentiation", "setting": "[2]; CD34+ve huHSC cultures", "value": "did not slow down myeloid cell differentiation"},
      {"measurement": "prolonged lifespan of cultures", "setting": "[2]; human HSCs supplemented with stem cell factor ± interleukin 3, abstract", "value": "up to 55 days"},
      {"measurement": "level of expansion of lineage−ve/CD133+ve/CD34+ve huHSC", "setting": "[3]; 100 nM, day 30, HPGM, 10 % human serum, 100 ng/ml SCF, mean of seven donors, control ~eightfold", "value": "~ 18 fold"},
      {"measurement": "expansion of lineage−ve/CD133+ve/CD34+ve cells", "setting": "[3]; all 15 donors, control 8–10-fold", "value": "around 20 fold"},
      {"measurement": "presence of week-five CAFC and LTC-IC", "setting": "[4]", "value": "only present in pan-RAR-antagonized wells"},
      {"measurement": "expansion of granulopoiesis in knockout mice lacking the receptor for G-CSF", "setting": "[5]; G-CSFR knockout mice, ref Chee et al. 2013", "value": "not seen"},
      {"measurement": "effect on myeloid cells after administration to mice", "setting": "[5]; mice, ref Walkley et al. 2002, Chee et al. 2013", "value": "increases in myeloid progenitor cells and mature myeloid cells"}
    ]}
  ]
}
